Columns and labels:
Assay in all cases: relative viability (nuclei count vs DMSO), 5 days (fraction); higher = more cells survive
NCI-H2126 = system: NCI-H2126
Outline: (§1)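 Relative viability divides the nuclei count in treated wells by that in vehicle wells. Lung cancer cell lines were seeded in 1536-well plates, dosed by pin tool the next day, and fixed and stained after 5 days in one step with final 0.05% Triton X-100, 1% formaldehyde and 1 ug/ml Hoechst. Dosing was a single drug or a fixed anchor-drug dose plus five library-drug doses (not always all listed) in √10 steps, and values are medians of duplicate plates imaged at 4×.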

NCI-H1755 = system: NCI-H1755
Outline: as §1

NCI-H2170 = system: NCI-H2170
Outline: as §1

SK-MES-1 = system: SK-MES-1
Outline: as §1

ChaGo-K-1 = system: ChaGo-K-1
Outline: as §1

LXF-289 = system: LXF-289
Outline: as §1

NCI-H2087 = system: NCI-H2087
Outline: as §1

ABC-1 = system: ABC-1
Outline: as §1

201T = system: 201T
Outline: as §1

NCI-H322M = system: NCI-H322M
Outline: as §1

EMC-BAC-2 = system: EMC-BAC-2
Outline: as §1

NCI-H1734 = system: NCI-H1734
Outline: as §1

NCI-H3122 = system: NCI-H3122
Outline: as §1

NCI-H1651 = system: NCI-H1651
Outline: as §1

NCI-H596 = system: NCI-H596
Outline: as §1

NCI-H441 = system: NCI-H441
Outline: as §1

PC-14 = system: PC-14
Outline: as §1

NCI-H2009 = system: NCI-H2009
Outline: as §1

HOP-62 = system: HOP-62
Outline: as §1

LK-2 = system: LK-2
Outline: as §1

H3255 = system: H3255
Outline: as §1

NCI-H647 = system: NCI-H647
Outline: as §1

O=C(O)CCCCC(CCSCc1ccccc1)SCc1ccccc1 (stereo not given) [CPI-613] + Nc1ncn([C@H]2C[C@H](O)[C@@H](CO)O2)c(=O)n1 [Decitabine] (partner 2 µM)
relative viability (NCI-H2126; first compound 5 µM): 0.536 | relative viability (NCI-H2126; first compound 15.81 µM): 0.578 | relative viability (NCI-H2126; first compound 50 µM): 0.599 | relative viability (NCI-H2126; first compound 158.11 µM): 0.188 | relative viability (NCI-H2126; first compound 500 µM): 0.132 | relative viability (NCI-H1755; first compound 5 µM): 0.732 | relative viability (NCI-H1755; first compound 15.81 µM): 0.738 | relative viability (NCI-H1755; first compound 50 µM): 0.67 | relative viability (NCI-H1755; first compound 158.11 µM): 0.699 | relative viability (NCI-H1755; first compound 500 µM): 0.543 | relative viability (NCI-H2170; first compound 5 µM): 0.458 | relative viability (NCI-H2170; first compound 15.81 µM): 0.484 | relative viability (NCI-H2170; first compound 50 µM): 0.486 | relative viability (NCI-H2170; first compound 158.11 µM): 0.342 | relative viability (NCI-H2170; first compound 500 µM): 0.199 | relative viability (SK-MES-1; first compound 5 µM): 0.422 | relative viability (SK-MES-1; first compound 15.81 µM): 0.367 | relative viability (SK-MES-1; first compound 50 µM): 0.377 | relative viability (SK-MES-1; first compound 158.11 µM): 0.19 | relative viability (SK-MES-1; first compound 500 µM): 0.103 | relative viability (ChaGo-K-1; first compound 5 µM): 0.489 | relative viability (ChaGo-K-1; first compound 15.81 µM): 0.517 | relative viability (ChaGo-K-1; first compound 50 µM): 0.514 | relative viability (ChaGo-K-1; first compound 158.11 µM): 0.274 | relative viability (ChaGo-K-1; first compound 500 µM): 0.161 | relative viability (LXF-289; first compound 5 µM): 0.369 | relative viability (LXF-289; first compound 15.81 µM): 0.375 | relative viability (LXF-289; first compound 50 µM): 0.365 | relative viability (LXF-289; first compound 158.11 µM): 0.272 | relative viability (LXF-289; first compound 500 µM): 0.0864 | relative viability (NCI-H2087; first compound 5 µM): 0.261 | relative viability (NCI-H2087; first compound 15.81 µM): 0.218 | relative viability (NCI-H2087; first compound 50 µM): 0.221 | relative viability (NCI-H2087; first compound 158.11 µM): 0.115 | relative viability (NCI-H2087; first compound 500 µM): 0.0094 | relative viability (ABC-1; first compound 5 µM): 1.18 | relative viability (ABC-1; first compound 15.81 µM): 1.28 | relative viability (ABC-1; first compound 50 µM): 1.37 | relative viability (ABC-1; first compound 158.11 µM): 0.698 | relative viability (ABC-1; first compound 500 µM): 0.864 | relative viability (201T; first compound 5 µM): 0.848 | relative viability (201T; first compound 15.81 µM): 0.778 | relative viability (201T; first compound 50 µM): 0.841 | relative viability (201T; first compound 158.11 µM): 0.194 | relative viability (201T; first compound 500 µM): 0.211 | relative viability (NCI-H322M; first compound 5 µM): 0.65 | relative viability (NCI-H322M; first compound 15.81 µM): 0.656 | relative viability (NCI-H322M; first compound 50 µM): 0.664 | relative viability (NCI-H322M; first compound 158.11 µM): 0.767 | relative viability (NCI-H322M; first compound 500 µM): 0.703 | relative viability (EMC-BAC-2; first compound 5 µM): 0.982 | relative viability (EMC-BAC-2; first compound 15.81 µM): 0.9 | relative viability (EMC-BAC-2; first compound 50 µM): 0.942 | relative viability (EMC-BAC-2; first compound 158.11 µM): 0.74 | relative viability (EMC-BAC-2; first compound 500 µM): 0.632 | relative viability (NCI-H1734; first compound 5 µM): 0.488 | relative viability (NCI-H1734; first compound 15.81 µM): 0.46 | relative viability (NCI-H1734; first compound 50 µM): 0.437 | relative viability (NCI-H1734; first compound 158.11 µM): 0.409 | relative viability (NCI-H1734; first compound 500 µM): 0.111 | relative viability (NCI-H3122; first compound 5 µM): 0.344 | relative viability (NCI-H3122; first compound 15.81 µM): 0.439 | relative viability (NCI-H3122; first compound 50 µM): 0.481 | relative viability (NCI-H3122; first compound 158.11 µM): 0.376 | relative viability (NCI-H3122; first compound 500 µM): 0.185 | relative viability (NCI-H1651; first compound 5 µM): 0.625 | relative viability (NCI-H1651; first compound 15.81 µM): 0.504 | relative viability (NCI-H1651; first compound 50 µM): 0.661 | relative viability (NCI-H1651; first compound 158.11 µM): 0.523 | relative viability (NCI-H1651; first compound 500 µM): 0.562 | relative viability (NCI-H596; first compound 5 µM): 1.13 | relative viability (NCI-H596; first compound 15.81 µM): 0.965 | relative viability (NCI-H596; first compound 50 µM): 0.98 | relative viability (NCI-H596; first compound 158.11 µM): 0.866 | relative viability (NCI-H596; first compound 500 µM): 0.111 | relative viability (NCI-H441; first compound 5 µM): 0.261 | relative viability (NCI-H441; first compound 15.81 µM): 0.253 | relative viability (NCI-H441; first compound 50 µM): 0.231 | relative viability (NCI-H441; first compound 158.11 µM): 0.148 | relative viability (NCI-H441; first compound 500 µM): 0.0077 | relative viability (PC-14; first compound 5 µM): 0.266 | relative viability (PC-14; first compound 15.81 µM): 0.201 | relative viability (PC-14; first compound 50 µM): 0.23 | relative viability (PC-14; first compound 158.11 µM): 0.109 | relative viability (PC-14; first compound 500 µM): 0.0133 | relative viability (NCI-H2009; first compound 5 µM): 0.393 | relative viability (NCI-H2009; first compound 15.81 µM): 0.397 | relative viability (NCI-H2009; first compound 50 µM): 0.385 | relative viability (NCI-H2009; first compound 158.11 µM): 0.228 | relative viability (NCI-H2009; first compound 500 µM): 0.0406 | relative viability (HOP-62; first compound 5 µM): 0.186 | relative viability (HOP-62; first compound 15.81 µM): 0.235 | relative viability (HOP-62; first compound 50 µM): 0.191 | relative viability (HOP-62; first compound 158.11 µM): 0.173 | relative viability (HOP-62; first compound 500 µM): 0.0675 | relative viability (LK-2; first compound 5 µM): 0.336 | relative viability (LK-2; first compound 15.81 µM): 0.274 | relative viability (LK-2; first compound 50 µM): 0.275 | relative viability (LK-2; first compound 158.11 µM): 0.313 | relative viability (LK-2; first compound 500 µM): 0.283 | relative viability (H3255; first compound 5 µM): 0.626 | relative viability (H3255; first compound 15.81 µM): 0.537 | relative viability (H3255; first compound 50 µM): 0.665 | relative viability (H3255; first compound 158.11 µM): 0.566 | relative viability (H3255; first compound 500 µM): 0.569 | relative viability (NCI-H647; first compound 5 µM): 0.345 | relative viability (NCI-H647; first compound 15.81 µM): 0.462 | relative viability (NCI-H647; first compound 50 µM): 0.352 | relative viability (NCI-H647; first compound 158.11 µM): 0.0749 | relative viability (NCI-H647; first compound 500 µM): 0.0141
